Test results from patent US7592330B2, “Methods and compositions for preserving the viability of photoreceptor cells” (Massachusetts Eye and Ear Infirmary, priority 2005, dated 2009).

How the values were obtained:
[1] = molecular target: T1, caspase 1 (Homo sapiens, UniProt P29466); settings: cited from earlier work
T1 sequence (P29466 120-297 limits assumed): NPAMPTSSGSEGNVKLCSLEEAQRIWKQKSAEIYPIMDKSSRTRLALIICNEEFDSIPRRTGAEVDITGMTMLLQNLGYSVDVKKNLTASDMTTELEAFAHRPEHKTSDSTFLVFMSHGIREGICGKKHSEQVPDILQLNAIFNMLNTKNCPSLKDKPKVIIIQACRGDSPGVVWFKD
T1 sequence (P29466 317-404 limits assumed): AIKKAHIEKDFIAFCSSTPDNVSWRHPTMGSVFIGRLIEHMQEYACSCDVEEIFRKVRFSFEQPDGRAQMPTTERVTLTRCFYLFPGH

[2] = molecular target: T2, caspase 3 (Homo sapiens, UniProt P42574); settings: cited from earlier work
T2 sequence (P42574 29-175 limits assumed): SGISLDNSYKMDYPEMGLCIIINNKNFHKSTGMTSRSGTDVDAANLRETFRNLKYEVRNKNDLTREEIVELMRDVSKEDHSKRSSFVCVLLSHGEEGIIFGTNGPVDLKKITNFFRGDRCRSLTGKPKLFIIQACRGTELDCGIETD
T2 sequence (P42574 176-277 limits assumed): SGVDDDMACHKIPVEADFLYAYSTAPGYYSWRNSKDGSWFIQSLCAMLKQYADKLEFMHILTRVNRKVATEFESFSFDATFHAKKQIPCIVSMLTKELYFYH

[3] = molecular target: T3, caspase 4 (Homo sapiens, UniProt P49662); settings: cited from earlier work
T3 sequence (P49662 81-270 limits assumed): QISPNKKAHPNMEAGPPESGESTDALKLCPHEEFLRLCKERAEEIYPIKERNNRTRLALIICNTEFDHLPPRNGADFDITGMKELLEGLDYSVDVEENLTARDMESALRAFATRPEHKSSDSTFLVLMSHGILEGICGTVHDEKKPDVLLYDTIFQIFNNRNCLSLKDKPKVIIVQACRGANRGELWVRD
T3 sequence (P49662 290-377 limits assumed): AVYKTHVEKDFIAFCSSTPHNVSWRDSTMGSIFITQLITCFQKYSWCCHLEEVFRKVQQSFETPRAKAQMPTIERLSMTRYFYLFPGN

[4] = molecular target: T4, caspase 7 (Homo sapiens, UniProt P55210); settings: cited from earlier work
T4 sequence (P55210 24-198 limits assumed): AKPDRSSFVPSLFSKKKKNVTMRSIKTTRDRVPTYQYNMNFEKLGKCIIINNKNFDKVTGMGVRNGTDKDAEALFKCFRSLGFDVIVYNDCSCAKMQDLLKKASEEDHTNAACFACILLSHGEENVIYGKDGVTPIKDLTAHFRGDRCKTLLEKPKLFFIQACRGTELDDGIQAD
T4 sequence (P55210 207-303 limits assumed): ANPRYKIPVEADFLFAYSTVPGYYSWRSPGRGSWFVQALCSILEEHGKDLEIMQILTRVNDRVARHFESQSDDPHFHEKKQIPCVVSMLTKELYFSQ

[5] = test system: photoreceptor cells; assay: Caspase inhibitor injected into region of retinal detachment, TUNEL staining (Example 2); assay type: in vivo, Brown-Norway rats; settings: 25 μl of 0.2, 2 or 20 mM inhibitor in DMSO into region of detachment; 72 hours; relative to untreated eyes
Procedure: The caspase inhibitor, Z-Val-Ala-Asp-fluoromethylketone is dissolved in dimethyl sulfoxide (DMSO) to give the final concentrations of 0.2 mM, 2 mM, and 20 mM. After creating the retinotomy with the subretinal injector, a small amount of Healon® sodium hyaluronate is injected in the subretinal space so as to elevate the retina. After retinal elevation, a Hamilton syringe with a 33 gauge needle is introduced through the retinotomy site, and 25 μl of inhibitor is injected into the region of detachment. About 25 minutes later, Healon® sodium hyaluronate is injected, via the same retinotomy site, to maintain the retinal detachment. Healon® sodium hyaluronate is injected until resistance is detected.
Only the right eyes of rats are used in evaluating the role of the Z-VAD-FMK inhibitor. The left eyes serve as the controls. Five animals are used for each concentration of inhibitor (namely, no inhibitor, 0.2 mM inhibitor, 2 mM inhibitor, and 20 mM inhibitor). For the no inhibitor control, 25 μl of DMSO is injected into the region of detachment followed by Healon® sodium hyaluronate.
After 72 hours, the eyes are enucleated and the rats euthanized. The enucleated eyes are paraffin embedded as described in Example 1. Then, 6 μm sections from the posterior segments are analyzed by TUNEL staining as described in Example 1.

[6] = test system: calpain-mediated cleavage of calcineurin; assay: ALLM treatment in experimental retinal detachment, Western blot of calcineurin cleavage (Example 4, Experiment #2); assay type: in vivo, Brown Norway rats
Excerpt: The following experiments determine that calcineurin is cleaved after retinal detachment and that pharmacologic inhibition of calpain will prevent this activation. In particular, retinas of rats with experimental retinal detachment will be examined for biochemical evidence of calcineurin activation. These experiments also determine that calcineurin cleavage is mediated by the calcium-dependent enzyme, calpain. […] Finally, they determine that calcineurin inhibitors like FK506 have a neuroprotective effect on photoreceptor cells death.
One day prior to surgical induction, animals are started on a treatment of ALLM (20 mg/kg/day, intraperitoneal administration), a calpain inhibitor, or vehicle control, and administration continues throughout the study. For this experiment, the animals are followed for three or five days after retinal detachment. At the end of this period, animals are sacrificed and their eyes are removed for either protein isolation or immunohistochemistry. Fellow eyes are used as controls. Western blot analysis is used to determine levels of retinal calcineurin and calcineurin cleavage products. Six animals per group are used.
Retinal Detachment Model. […]

[7] = test system: photoreceptor cells; assay type: in vivo, Brown Norway rats
Procedure: Methods. Retinal detachments were created in the eyes of Brown Norway rats by injecting 10% hyaluronic acid into the subretinal space using a transvitreal approach. FK506 (tacrolimus) (5 mg/kg/day) diluted in PBS was administered by gastric gavage one day prior to the induction of retinal detachment, on the day of the induction, and for the two following days (n=6). Control animals received the same volume of PBS (0.5 cc) by gastric gavage one day prior to the induction of retinal detachment, on the day of the induction, and for the two following days (n=3). […] All eyes were enucleated 72 hours after retinal detachment induction and embedded in paraffin. Fourteen micrometer sections were subsequently obtained. DNA fragmentation was examined using terminal dUTP-biotin nick end-labeling (TUNEL). A masked observer counted TUNEL-positive cells and obtained an average from three adjacent standardized fields in two serial sections.

Molecule: Z-Val-Ala-Asp-fluoromethylketone
- inhibition of caspase 1 [1]: inhibits
- inhibition of caspase 3 [2]: inhibits
- inhibition of caspase 4 [3]: inhibits
- inhibition of caspase 7 [4]: inhibits
- TUNEL-positive photoreceptor cells in the region of retinal detachment [5]: fewer photoreceptor cells in the region of retinal detachment that stain TUNEL-positive

Molecule: Ac-Tyr-Val-Ala-Asp-aldehyde (SEQ ID NO: 7)
- Ki [1]: 10 nM
- Ki [2]: ≥ 50000 nM
- Ki [3]: 10 nM
- Ki [4]: ≥ 50000 nM

Molecule: Ac-Leu-Leu-Met-H (aldehyde) [ALLM]
- levels of retinal calcineurin and calcineurin cleavage products ([6]; ALLM 20 mg/kg/day intraperitoneal, three or five days after retinal detachment): inhibition of the calpain-mediated cleavage pathway
- photoreceptor cell death ([6]; treatment with ALLM in experimental retinal detachment): protect photoreceptor cells from death

Molecule: C=CC[C@@H]1/C=C(\C)C[C@H](C)C[C@H](OC)[C@H]2O[C@@](O)(C(=O)C(=O)N3CCCC[C@H]3C(=O)O[C@H](/C(C)=C/[C@@H]3CC[C@@H](O)[C@H](OC)C3)[C@H](C)[C@@H](O)CC1=O)[C@H](C)C[C@@H]2OC [FK506, FK506 (tacrolimus)]
- TUNEL-positive cells (mean±SD) ([7]; FK506 5 mg/kg/day by gastric gavage, from one day prior to detachment, eyes enucleated 72 hours after retinal detachment, n=6): 130.13±54.3
- morphological signs of toxicity in the eyes ([7]; rat, in vivo, 5 mg/kg/day): no morphological signs of toxicity
- reduction in the mean number of TUNEL-positive cells ([7]; treated group vs PBS control, 72 hours after detachment, p<0.05): 35%
